Test results taken from patent US8642028B2, “Recombinant adenoviruses encoding the specific iodine transporter (NIS)” (Aventis Pharma S.A., priority 1999, dated 2014).

Tests used:
[1] = biological target: T1, NIS (Rattus norvegicus, UniProt Q63008); assay: Inhibition by perchlorate of iodine transport by NIS in FRTL-5 cells; assay type: cell-based
T1 construct: expressed in transfected cells; host or cells: SiHa human epithelial tumor cells (ATCC HTB-35) infected with Ad-NIS at a multiplicity of infection of 10
T1 sequence (Q63008 1-618): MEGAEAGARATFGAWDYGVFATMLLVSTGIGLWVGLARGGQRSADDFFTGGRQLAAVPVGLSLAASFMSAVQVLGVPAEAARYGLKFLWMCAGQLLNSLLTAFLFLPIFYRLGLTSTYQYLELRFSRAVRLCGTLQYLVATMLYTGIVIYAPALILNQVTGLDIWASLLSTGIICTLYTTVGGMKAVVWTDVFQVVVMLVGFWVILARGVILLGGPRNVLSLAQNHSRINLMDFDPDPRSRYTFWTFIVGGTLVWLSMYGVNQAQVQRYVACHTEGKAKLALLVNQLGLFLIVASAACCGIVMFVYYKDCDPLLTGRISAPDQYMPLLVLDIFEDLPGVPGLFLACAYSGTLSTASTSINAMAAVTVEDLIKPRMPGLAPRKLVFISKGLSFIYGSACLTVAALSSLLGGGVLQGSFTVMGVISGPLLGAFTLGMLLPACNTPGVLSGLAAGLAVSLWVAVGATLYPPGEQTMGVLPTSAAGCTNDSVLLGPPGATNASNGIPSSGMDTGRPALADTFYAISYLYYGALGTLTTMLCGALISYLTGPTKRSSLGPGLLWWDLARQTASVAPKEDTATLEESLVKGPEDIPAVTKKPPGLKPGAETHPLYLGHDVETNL
Experimental: (§1) The cells are infected with the Ad-NIS vector at a multiplicity of infection of 10. The capacity of the cells to capture iodine is tested 28 to 29 h after infection according to the Weiss et al. method [Endocrinology (1984) 114: 1090-1098]. The infected cells are washed with HBSS buffer and placed in contact for the time indicated in FIG. 3 with 0.5 ml of HBSS buffer containing 0.1 μCi of iodine-125. At the end of the contact time, the cells are washed once with cold HBSS buffer and then incubated for 20 min with cold ethanol. The quantity of iodine-125 captured by the cells is determined by assaying the radioactivity of the ethanol, with a gamma counter.
(§2) The specific inhibition of iodine transport by NIS was tested in the presence of perchlorate. NaCIO4 was added to the HBSS buffer containing iodine-125 so as to obtain final concentrations of 30, 300 and 3000 μM. The contact time between the cells and the iodine-125 is 15 minutes. The results are expressed as number of counts for the same number of cells.

[2] = biological target: T1, NIS; assay: Inhibition by perchlorate of iodine transport by NIS in SiHa cells infected with Ad-NIS; assay type: cell-based
Experimental: as §1, §2

## [O-][Cl+3]([O-])([O-])O [NaCIO4]
[1]; FRTL-5, FRTL-5 cells, 30 μM NaCIO4, 15 min contact with iodine-125, read-out: inhibition of the fixing of iodine
  inhibition at 30 µM: > 90%
[1]; FRTL-5 cells, high NaCIO4 concentrations, 15 min contact with iodine-125
  inhibition of the fixing of iodine: 95%
[2]; SiHa cells infected with Ad-NIS versus FRTL-5 cells
  inhibitor concentration required for the same level of inhibition, SiHa cells relative to FRTL-5 cells: 10 times
[2]; SiHa cells infected with Ad-NIS, 30 μM NaCIO4, 15 min contact, read-out: inhibition of the fixing of iodine
  inhibition at 30 µM: 40%
[2]; SiHa cells infected with Ad-NIS, 300 μM NaCIO4, 15 min contact, read-out: inhibition of the fixing of iodine
  inhibition at 300 µM: 92%
[2]; SiHa cells infected with Ad-NIS, 3 mM NaCIO4, 15 min contact, read-out: inhibition of the fixing of iodine
  inhibition at 3000 µM: 98%
